Tests used:
[1] = tested on: SNU475 cells; test: Optical diffraction tomography (ODT) imaging of vesicles and organelles in SNU475 cells; format: cell-based, human
Method: To confirm changes in vesicles upon treatment with an autophagy modulator, SNU475 cells, which are a human hepatoma cell line, were treated with 10 μM thapsigargin, which is an autophagy activator, and then the changes in vesicles in the cells were examined.
More specifically, a SNU475 cell line was prepared in a TomoDish and the SNU475 cells were treated with 10 μM thapsigargin, and then optical diffraction tomography (ODT) images were generated by using HT-2H fluorescence holotomography (Tomocube).
SNU475 cells were treated with 10 μM thapsigargin to induce ER stress, and then changes in the refractive index and radius of vesicles produced in the cells were measured on the basis of images confirmed in Example 1, and the results thereof are shown in FIG. 2. In addition, SNU475 cells were treated with 10 μM thapsigargin, and the number and volume of vesicles in the SNU475 cells treated with thapsigargin were observed over time for 2 hours, and the results thereof are shown in FIG. 3.
To confirm statistical changes in the density and refractive index of vesicles and organelles upon treatment with thapsigargin, the densities and refractive indices of cells before and after SNU475 cells were treated with thapsigargin (10 μM) were compared. In addition, to confirm changes in the densities of organelles upon treatment with thapsigargin, the refractive indices of a nucleolus (No), an endoplasmic reticulum (ER), a cytosol (Cyt), and a plasma membrane (PM) were measured.
To confirm whether the same results as the case of thapsigargin can be obtained upon treatment with autophagy modulators other than thapsigargin, SNU475 cells were treated with each of CPA (20 μM) and TC (60 ug/mL) to induce ER stress, and then changes in vesicles produced in the cells were observed using HT-2H fluorescence holotomography (Tomocube). For observation, optical diffraction tomography (ODT) images 10 hours after treatment with CPA and ODT images 2 hours after treatment with TC were generated, and the results thereof are shown in FIG. 8.

[2] = tested on: SNU475 cells; test: Fluorescent tracker (ER-tracker, lysosome-tracker, mito-tracker) imaging by super-resolution microscopy (Airyscan); format: cell-based, human
Method: Changes in the endoplasmic reticulum and lysosomes were measured using a confocal microscope and fluorescent trackers. As the fluorescent trackers, ER-tracker, which enables the specific observation of only the endoplasmic reticulum, and lysosome-tracker, which enables the specific observation of only lysosomes, were used.
Specifically, SNU475 cells were treated with thapsigargin (10 μM) and then stained with ER-tracker or lysosome-tracker, the kinetics of the endoplasmic reticulum and lyosomes were analyzed by super-resolution microscopy (Airyscan), and the results thereof are shown in FIG. 5.
To confirm that high-density vesicles produced upon treatment with thapsigargin are specific to the endoplasmic reticulum, the kinetics of mitochondria were analyzed in the same manner as in 4.1 above by using mito-tracker, which is a mitochondria-specific tracker, and the results thereof are shown in FIG. 6.

[3] = tested on: SNU475 cells; test: ODT setup linking three-dimensional ODT imaging and two-dimensional fluorescence; format: cell-based, human; settings: SNU475 cells after treatment with thapsigargin, ODT plus 2D fluorescence
Method: Additionally, changes in the endoplasmic reticulum and lysosomes in SNU475 cells treated with thapsigargin were analyzed using an ODT setup that can link three-dimensional ODT imaging and two-dimensional fluorescence. […] It was also confirmed that vesicles were produced in the ER region, followed by fusion with lysosomes.

[4] = tested on: CCPG1; test: Colocalization of ER-phagy receptors with LC3 by immunofluorescence (IF); format: cell-based; settings: 10 μM thapsigargin, IF (FIG. 7)
Method: (§1) To measure the activation levels of an autophagy marker and an ER-phagy marker after treatment with thapsigargin, the colocalization of ER-phagy receptors was measured.
(§2) More specifically, after treatment with thapsigargin (10 μM), the activation of CCPG1, FAM134B, RTN3, and SEC62 was examined by immunofluorescence (IF) analysis, and then the results thereof are shown in FIG. 7.

[5] = tested on: FAM134B; test: as above; format: cell-based; settings: 10 μM thapsigargin, IF (FIG. 7)
Method: as §1, §2

[6] = tested on: RTN3; test: as above; format: cell-based; settings: 10 μM thapsigargin, IF (FIG. 7)
Method: as §1, §2

[7] = tested on: SEC62; test: as above; format: cell-based; settings: 10 μM thapsigargin, IF (FIG. 7)
Method: as §1, §2

[8] = 10 μM thapsigargin, observed for 2 hours (FIG. 3)

## C/C=C(/C)C(=O)O[C@H]1C(C)=C2[C@H]([C@@H]1OC(=O)CCCCCCC)[C@@](C)(OC(C)=O)C[C@H](OC(=O)CCC)[C@@]1(O)[C@H]2OC(=O)[C@@]1(C)O [thapsigargin]
[1]; 10 μM thapsigargin (FIG. 2A)
  change in the refractive index of vesicles over time: decreased over time
[1]; 10 μM thapsigargin (FIG. 2B)
  change in the radius of vesicles over time: increased over time
[1]; 10 μM thapsigargin (FIG. 4)
  ER-phagy induction: induced
  density of induced vesicles compared with the endoplasmic reticulum: higher density than the endoplasmic reticulum
[1]; 10 μM thapsigargin, ODT images (FIG. 1)
  generation of high-density vesicles: high-density vesicles were generated
[1]; [8]
  change in the total number of vesicles over time: decreased over time
  change in volume of vesicles over time: increased over time
[1]; before and after 10 μM thapsigargin (FIG. 4C)
  density of the endoplasmic reticulum upon treatment: decreased
[2]; 10 μM thapsigargin, ER-tracker or lysosome-tracker (FIG. 5)
  production of vesicles and lysosomes containing ER components: vesicles and lysosomes that contain ER components were produced
[2]; 10 μM thapsigargin, lysosome-tracker (FIG. 5B)
  time difference of production of large lysosomes relative to the ER: about 15 minutes
[2]; thapsigargin, mito-tracker (FIG. 6)
  mitochondrial components in high-density vesicles: did not include mitochondrial components
[3]
  colocalization of high-density vesicles produced in the cytoplasm: specifically colocalized with the endoplasmic reticulum and lysosomes
[4]
  activation of CCPG1 through colocalization with LC3: activated
[5]
  activation of FAM134B through colocalization with LC3: activated
[6]
  activation of RTN3 through colocalization with LC3: activated
[7]
  activation of SEC62 through colocalization with LC3: activated

## tunicamycin [TC]
[1]; TC 60 ug/mL, ODT images 2 hours after treatment (FIG. 8B)
  change in vesicles: the same changes in the vesicles as those upon treatment with thapsigargin occurred

Reference: US20260092868A1, “METHOD FOR SCREENING FOR AUTOPHAGY MODULATOR” (THE ASAN FOUNDATION, priority 2022, published 2026)
